# Source: patent US10005779B2, “1′,4′-thio nucleosides for the treatment of HCV” (priority 2013, dated 2018)
# Like-named read-outs stand apart in the source and are kept apart here.
# How the values were obtained:
# [1] = biological target: T1, wild-type HCV genotype 1b NS5B polymerase (Hepatitis C virus genotype 1b, UniProt Q9WMX2); assay: HCV polymerase enzyme assay, wild-type; assay type: biochemical
# T1 construct: recombinant HCV polymerases (with a deletion of the 21 carboxy terminal amino acids); made in house
# Excerpt: (§1) Test compounds in the form of nucleoside triphosphates were examined for inhibitory activity against purified HCV polymerase in a standard assay. Bacterial expression constructs encoding the approximately 65 kDa HCV genotype 1b NS5B protein were used to generate recombinant HCV polymerases (with a deletion of the 21 carboxy terminal amino acids). Both the wild-type genotype 1b protein and protein containing the S282T mutation were expressed and purified for use in the enzymatic activity assay.
# (§2) The enzymatic activity assay measured the inhibitory effect of increasing concentrations of test compound on the incorporation of α-[^33P]-labeled nucleotide into trichloroacetic acid-precipitable material. Recombinant polymerase and synthetic RNA template were combined in reaction buffer containing ribonucleoside triphosphates, α-[^33P]-labeled nucleotide and eight concentrations of test compound in three-fold dilutions. Reactions were incubated for two hours at 30° C.
# (§3) Reactions were terminated by the addition of ice-cold trichloroacetic acid and sodium pyrophosphate to promote precipitation of newly-synthesized ribonucleic acid. Precipitable material from the reactions was collected by filtration onto 96-well filter plates, washed extensively with water, and quantified by liquid scintillation.
# (§4) The inhibitory activity of test compounds was determined by fitting results to dose-response curves using XLfit software.
# [2] = biological target: T2, HCV genotype 1b NS5B polymerase containing the S282T mutation (Hepatitis C virus genotype 1b, UniProt Q9WMX2, S2701T); assay: HCV polymerase enzyme assay, S282T mutant; assay type: biochemical
# T2 construct: recombinant HCV polymerases (with a deletion of the 21 carboxy terminal amino acids); made in house
# Excerpt: as §1, §2, §3, §4
# [3] = Cytotoxicity evaluation, CellTiter-Blue Cell Viability Assay; assay type: cell-based; conditions: human, Zluc cells (HCV replicon cells)
# Protocol: For cytotoxicity evaluation, Zluc cells were treated with compound as described herein, and cell viability was monitored using the CellTiter-Blue Cell Viability Assay (Promega) by adding 20 μL of the assay solution to each well. The plates were then incubated at 37° C./5% CO2 for at least 3 hours.
# [4] = system: HCV genotype 1b replicon in Huh-7-derived cell line (Zluc); assay: microbe, parasite or virus in culture; assay type: cell-based; conditions: Hepatitis C virus, read-out: HCV Replicon EC50
# Protocol: Huh-7-derived cell line (Zluc) that harbors an HCV genotype 1b replicon and a luciferase reporter gene was grown in Dulbecco's Modified Eagle Medium (DMEM) supplemented with 10% fetal bovine serum, 2 mM GlutaMAX, 1% MEM nonessential amino acids, 100 IU/mL penicillin, 100 μg/mL streptomycin, and 0.5 mg/mL Geneticin® (G418). For dose response testing the cells were seeded in 96-well plates at 7.5×10^3 cells per well in a volume of 50 μL, and incubated at 37° C./5% CO2. Drug solutions were made up freshly in Huh-7 media as 2× stocks. Ten additional 5-fold dilutions were prepared from these stocks in DMEM without G418. At least three hours after Zluc cells were seeded, drug treatment was initiated by adding 50 μL of drug dilutions to the plates in duplicate. […] Cells were then incubated at 37° C./5% CO2. Alternatively, compounds were tested at two concentrations (1 μM and 10 μM). […] For this, media was removed from the plates via gentle tapping. Fifty microliters of ONE-glo luciferase assay reagent was added to each well. […] The EC50 values were calculated from dose response curves from the resulting best-fit equations determined by Microsoft Excel and XLfit 4.1 software.
# [5] = Zluc cells, 72 hours of incubation, luciferase readout
SMILES,IC50 [1],IC50 [2],CC50 at 72 h [3],"EC50 [4, 5]",EC50 ([4]; 72 h)
O=c1ccn([C@@H]2S[C@H](COP(=O)(O)OP(=O)(O)OP(=O)(O)O)[C@@H](O)[C@H]2O)c(=O)[nH]1 [Compound 202],250 to 1000 nM,250 to 1000 nM,,,
CC(C)OC(=O)[C@H](C)NP(=O)(OCCSC(=O)C(C)(C)C)OC[C@H]1S[C@@H](n2ccc(=O)[nH]c2=O)[C@H](O)[C@@H]1O (mixture of isomers) [4b mixture of diastereomers],,,> 50 µM,> 10 µM,
"CC(C)OC(=O)[C@H](C)NP(=O)(OCCSC(=O)C(C)(C)C)OC[C@H]1S[C@@H](n2ccc(=O)[nH]c2=O)[C@H](O)[C@@H]1O (single isomer, unassigned) [4b diastereomer 1]",,,> 50 µM,> 10 µM,
CC(C)OC(=O)[C@H](C)N[P@](=O)(OC[C@H]1S[C@@H](n2ccc(=O)[nH]c2=O)[C@H](O)[C@@H]1O)Oc1ccccc1 [Compound 2bii],,,> 50 µM,> 10 µM,
Nc1nc2c(ncn2[C@@H]2S[C@H](COP(=O)(O)OP(=O)(O)OP(=O)(O)O)[C@@H](O)[C@H]2O)c(=O)[nH]1 [Compound 203],250 to 1000 nM,1000 to 10000 nM,,,
CC(C)OC(=O)[C@H](C)N[P@@](=O)(OC[C@H]1S[C@@H](n2ccc(=O)[nH]c2=O)[C@H](O)[C@@H]1O)Oc1ccccc1 [Compound 2bi],,,> 50 µM,> 10 µM,
C[C@@]1(O)[C@H](O)[C@@H](COP(=O)(O)OP(=O)(O)OP(=O)(O)O)S[C@H]1n1ccc(=O)[nH]c1=O [Compound 201],1000 to 10000 nM,> 10000 nM,,,
CC(C)(C)C(=O)SCCOP(=O)(NCc1ccccc1)OC[C@H]1S[C@@H](n2ccc(=O)[nH]c2=O)[C@H](O)[C@@H]1O (mixture of isomers) [3 mixture of diastereomers],,,> 50 µM,> 10 µM,
"CC(C)OC(=O)[C@H](C)NP(=O)(OC[C@H]1S[C@@H](n2ccc(=O)[nH]c2=O)[C@](C)(O)[C@@H]1O)Oc1ccccc1 (single isomer, unassigned) [1b diastereomer 1]",,,> 50 µM,,> 10 µM
CC(C)OC(=O)[C@@H](C)NP(=O)(OC[C@H]1S[C@@H](n2ccc(=O)[nH]c2=O)[C@H](O)[C@@H]1O)Oc1ccccc1 (mixture of isomers) [2a mixture of diastereomers],,,> 50 µM,> 10 µM,
